Assay results published in paper PMC10266789 (The Journal of Clinical Investigation, 2023).
Where two headings read alike, the source gives them in different places.

Assays:
[1] = system: Hepatitis B virus (genotype D, subtype ayw); experiment: microbe, parasite or virus in culture; details: Hepatocyte, read-out: IC50, Hepatitis B
[2] = system: HCMV TB40/E-mCherry-UL99eGFP; experiment: HCMV delayed treatment protocol, infected cell area in MRC-5; details: for IC50: Human betaherpesvirus 5, MRC5, 120 h, 5 days of treatment
recombinant human SIRT2 = target: T1, recombinant human SIRT2 (Homo sapiens, UniProt Q8IXJ6); experiment: SIRT2 thermal stability (thermal shift) assay; assay type: binding
T1 sequence (Q8IXJ6 39-352 limits assumed): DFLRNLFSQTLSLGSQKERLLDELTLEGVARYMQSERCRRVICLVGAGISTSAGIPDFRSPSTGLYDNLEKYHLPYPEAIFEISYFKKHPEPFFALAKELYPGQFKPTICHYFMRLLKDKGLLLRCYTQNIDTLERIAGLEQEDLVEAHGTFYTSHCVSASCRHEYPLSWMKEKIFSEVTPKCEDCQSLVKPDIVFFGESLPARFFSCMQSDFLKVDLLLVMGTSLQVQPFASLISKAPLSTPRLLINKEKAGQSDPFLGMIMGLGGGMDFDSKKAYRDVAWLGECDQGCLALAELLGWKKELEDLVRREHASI
Description: SIRT2 underwent thermal denaturation with a midpoint transition temperature (Tm) of approximately 48°C.
Thermal melt data were collected using custom instrumentation (Fluorescence Innovations), with either 405 nm or 532 nm laser excitation and fluorescence lifetime emission to measure total well fluorescence and fluorescence lifetime as a function of temperature. Data were treated as previously described ([37]) to determine the midpoint transition temperature, Tm.

recombinant human SIRT1 = target: T2, recombinant human SIRT1 (Homo sapiens, UniProt Q96EB6); experiment: SIRT deacylase assay, deacetylation of Ac-H3K9WW peptide, mass spectrometry; assay type: biochemical; details: Figure 1C; n = 3
T2 construct: purified, recombinant SIRT2^2–389, SIRT1^1–747, or SIRT3^1–400 protein (GenScript); purchased GenScript
T2 sequence (Q96EB6 1-747): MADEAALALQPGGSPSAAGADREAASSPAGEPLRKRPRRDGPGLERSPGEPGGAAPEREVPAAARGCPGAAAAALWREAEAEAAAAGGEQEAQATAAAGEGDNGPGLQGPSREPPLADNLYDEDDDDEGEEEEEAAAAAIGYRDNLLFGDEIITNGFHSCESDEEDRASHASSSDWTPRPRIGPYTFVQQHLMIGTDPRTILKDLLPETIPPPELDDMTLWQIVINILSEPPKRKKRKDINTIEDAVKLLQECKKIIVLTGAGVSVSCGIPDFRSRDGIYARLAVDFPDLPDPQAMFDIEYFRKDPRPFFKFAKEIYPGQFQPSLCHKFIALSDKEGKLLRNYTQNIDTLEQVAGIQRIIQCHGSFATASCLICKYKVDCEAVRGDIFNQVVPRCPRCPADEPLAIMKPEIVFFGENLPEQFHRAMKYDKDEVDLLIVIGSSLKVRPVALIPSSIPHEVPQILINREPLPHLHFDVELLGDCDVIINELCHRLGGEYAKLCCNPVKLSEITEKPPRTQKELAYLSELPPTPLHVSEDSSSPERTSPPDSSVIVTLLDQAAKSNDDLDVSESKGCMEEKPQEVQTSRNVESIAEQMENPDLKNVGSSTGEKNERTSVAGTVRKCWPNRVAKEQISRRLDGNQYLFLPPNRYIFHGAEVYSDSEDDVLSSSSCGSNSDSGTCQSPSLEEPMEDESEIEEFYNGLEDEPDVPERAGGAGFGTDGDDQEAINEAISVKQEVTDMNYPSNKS

HCMV TB40/E [3] = experiment: Mouse gelfoam-fibroblast model of HCMV infection; assay type: in vivo, CIEA NOG mice; details: day 11; TCID50; FLS-359 50 mg/kg p.o. b.i.d.; valganciclovir 50 mg/kg p.o. daily; P < 0.03
[4] = system: c-Myc in MDA-MB-231 breast adenocarcinoma cells; experiment: Western blot of c-Myc in MDA-MB-231 cells; assay type: cell-based, human; details: 72 hours
Description: Supplemental Figure 1. […] (A) HepG2 cells were treated with FLS- […]
determined by western blot. Total a-tubulin was monitored as a control. (B) MDA-MB-231 cells or (C) MRC-5 fibroblasts were treated with drug for 72h and c-Myc was monitored by western blot with b-actin as a control. Western blots are representative of three independent experiments.
(1 picture or pasted object on this page, not shown here)

[5] = system: Influenza A (strain A/California/07/2009)
HCMV TB40/E [6] = experiment: Human lung-only mouse model of HCMV infection; assay type: in vivo, lung-only mice (NSG); details: day 17; TCID50; FLS-359 50 mg/kg p.o. b.i.d.; ganciclovir 100 mg/kg i.p. daily; P < 0.04

Structure (SMILES): Cc1cn(-c2ccc3c(c2)CN(c2ncc(Cc4ccc(-n5cccn5)cc4)s2)CC3)c(C)n1 [FLS-359, 7-(2,4-dimethyl-1H-imidazol-1-yl)-2-(5-{[4-(1H-pyrazol-1-yl)phenyl]methyl}-1,3-thiazol-2-yl)-1,2,3,4-tetrahydroisoquinoline]
- IC50 [1]: 4800 nM
- IC50 ([2]; read-out: IC50, infected cell area, drug added at 0 hpi, 0.1 IU/cell): 900 nM
- IC50 ([2]; read-out: IC50, infected cell area, drug added at 24 hpi): 600 nM
- IC50 ([2]; read-out: IC50, infected cell area, drug added at 48 hpi): 800 nM
- IC50 ([2]; read-out: IC50, infected cell area, drug added at 72 hpi): 900 nM
- IC50 ([2]; read-out: IC50, infected cell area, drug added at 96 hpi): 900 nM
- Maximum Fold-Reduction in infected cell area ([2]; drug added at 0 hpi): 11.6
- Maximum Fold-Reduction in infected cell area ([2]; drug added at 24 hpi): 33.4
- Maximum Fold-Reduction in infected cell area ([2]; drug added at 48 hpi): 21.2
- Maximum Fold-Reduction in infected cell area ([2]; drug added at 72 hpi): 17.6
- Maximum Fold-Reduction in infected cell area ([2]; drug added at 96 hpi): 21.8
- increase of SIRT2 Tm (recombinant human SIRT2; 6.25 μM): 1.4 °C
- increase of SIRT2 Tm (recombinant human SIRT2; 12.5 μM): 2.0 °C
- IC50 (recombinant human SIRT1): > 100000 nM
- virus production in gelfoam implants (HCMV TB40/E [3]): significantly reduced virus production
- c-Myc protein level [4]: dramatically reduced
- SI CC50/IC50 ([5]; Influenza A/human dNHBE): >83.3
- IC90, Influenza A (column headed IC50, footnote C: IC90) ([5]; human dNHBE): 1.2^C μM
- production of infectious HCMV progeny in human lung implants (HCMV TB40/E [6]): significantly reduced the production of infectious HCMV progeny
